Here are results for 1 substance from patent US20040109845A1, “Method for inhibiting articular cartilage matrix calcification” (priority 2001, published 2004).

This test concerns alkaline phosphatase (AP). The experiment in a line: AP activity of cultured meniscal cells. The test is classed as cell-based, human. The conditions noted are these: 48 h, 10 ng/ml. The method, then:
Meniscal cells (from the same donors used in FIG. 3 above) were released from the matrix with collagenase digestion, and grown in monolayer culture for 72 hrs, then trypsinized and plated in 35 mm dishes (containing 3×10^5 cells) and allowed to adhere overnight. Cells were then treated for 48 h with 10 ng/ml of TGFβ or IL-1β (10 ng/ml) in 1% FCS-containing DMEM high glucose medium. The cells were collected and lysed for the TGase (FIG. 5A), NTPPPH (FIG. 5B), and AP (FIG. 5C) assays as described in the Methods. Five micrograms of soluble protein was studied in triplicate for each assay performed as previously described. Results were analyzed by linear regression, with results indicated.
PPi was determined by differential adsorption on activated charcoal of UDP-D-[6-^3H] glucose (Amersham, Chicago, Ill.) from the reaction product 6-phospho [6-^3H] gluconate (28). Units of NTPPPH and AP were designated as micromoles of substrate hydrolyzed per hour (per μg DNA in each sample) (28). NO release by cultured meniscal cells was measured using the Greiss reaction (33). Concentrations or specific activities of PPi, NTPPPH, and AP were equalized for cellular DNA concentrations in each well.

Regarding “IL-1β: Human recombinant IL-1β purchased from R&D Systems”, the AP activity result is given as “did not significantly change”.
